According to patent US4336250A, “Lactation improvement method” (Eli Lilly and Company, priority 1981, dated 1982):

Key:
[1] = system: Ruminal VFA (rumen fluid); assay: In vitro rumen fluid fermentation test, ratio of VFA in treated to control flasks; set-up: species or system steer; details: 16 hours at 38° C
Description: As previously noted, a preferred method for improving milk production in lactating ruminants comprises the oral administration of the virginiamycin type antibiotic A-2315. […] Rumen fluid is obtained from a steer with a surgically-installed fistula opening into the rumen. The steer is maintained on a high-grain ration, the composition of which follows: A sample of rumen fluid is strained through four layers of cheesecloth, and the filtrate is collected. The particulate matter retained by the cheesecloth is resuspended in enough physiological buffer to return it to the original volume of the rumen fluid, and this suspension is strained again. The buffer used has the following composition: The two filtrates are combined and allowed to stand until particulate matter separates to the top. The clear layer is separated, diluted with the same buffer (1:1) and then adjusted to pH 7.0. The diluted rumen fluid (10 ml.) is placed in a 25-ml flask with 40 mg. of the above-described feed, an additional 5 mg. of soybean protein, and the test compound. Four replicate flasks are used per treatment. Two sets of four control flasks each are also employed. A zero-time control and an incubated 16-hour control are used. All test flasks are incubated for 16 hours at 38° C. After incubation, 25 percent metaphosphoric acid (2 ml.) is added to each flask. The samples are allowed to settle, and the supernatant is analyzed by gas chromatography for propionate, acetate, and butyrate compounds. Test compound results are statistically compared with control results.

Ruminal VFA = assay: In vivo ruminal VFA test in fistulated non-lactating lambs; set-up: species or system sheep; details: 15 g/ton in feed
Experimental: Two groups of fistulated lambs are allowed slightly more than their normal feed ration for 17 days. Test compound is administered to one group in the feed on a g/ton basis.
The rumen fluids of both groups of animals are sampled on days 3, 7, 10, 14 and 17 of the treatment period.
The fermentation of the ruminal samples is halted by addition of meta-phosphoric acid. Each sample is diluted, centrifuged at 2000×gravity for 10 minutes; the supernatants are analyzed for volatile fatty acids via the gas chromatographic method of E. S. Erwin, G. J. Marco and E. M. Emery in J. Dairy Sci., 44, 1768 […]. Molar percentages of ruminal volatile fatty acids are calculated, and the effect is measured as a comparison of the molar percentages of propionic acid and butyric acid in treated animals to those in contemporary controls. The results of the test are presented below in Tables II and III.

dairy cows = details: all administration rates evaluated; cited from earlier work
[2] = 0.1 mcg per ml diluted rumen fluid
[3] = 0.3 mcg per ml diluted rumen fluid
[4] = 1.0 mcg per ml diluted rumen fluid
[5] = molar percentage of ruminal VFA, 17 days

CC1=C\[C@@H](O)C[C@@H](O)Cc2nc(co2)C(=O)N[C@H](C)C(=O)O[C@H](C(C)C)[C@H](C)/C=C/C(=O)NC\C=C\1 [A-2315 Factor A]
Acetate, ratio of VFA concentration in treated flasks to control flasks [1, 2]: 0.97 | Butyrate, ratio of VFA concentration in treated flasks to control flasks [1, 2]: 1.01 | Propionate, ratio of VFA concentration in treated flasks to control flasks [1, 2]: 1.07 | Total VFA, ratio of concentration in treated flasks to control flasks [1, 2]: 1.04 | Acetate, ratio of VFA concentration in treated flasks to control flasks [1, 3]: 0.95 | Butyrate, ratio of VFA concentration in treated flasks to control flasks [1, 3]: 1.00 | Propionate, ratio of VFA concentration in treated flasks to control flasks [1, 3]: 1.08 | Total VFA, ratio of concentration in treated flasks to control flasks [1, 3]: 1.07 | Acetate, ratio of VFA concentration in treated flasks to control flasks [1, 4]: 0.95 | Butyrate, ratio of VFA concentration in treated flasks to control flasks [1, 4]: 1.04 | Propionate, ratio of VFA concentration in treated flasks to control flasks [1, 4]: 1.15 | Total VFA, ratio of concentration in treated flasks to control flasks [1, 4]: 1.05 | Butyric acid, Increase Relative to Control (Ruminal VFA): 21.6% | Propionic acid, Increase Relative to Control (Ruminal VFA): 18.2% | Butyric acid, Change from Control (Ruminal VFA; control 11.1): 2.4 | Propionic acid, Change from Control (Ruminal VFA; control 26.2): 4.8 | % Butyric Acid Conc. (Ruminal VFA; [5]): 13.5% | % Propionic Acid Conc. (Ruminal VFA; [5]): 31.0%

CC[C@@]1([C@@H]2O[C@@H]([C@H]3O[C@@](O)(CO)[C@H](C)C[C@@H]3C)C[C@@H]2C)CC[C@H]([C@]2(C)CC[C@]3(C[C@H](O)[C@@H](C)[C@@H]([C@@H](C)[C@@H](OC)[C@H](C)C(=O)O)O3)O2)O1 [Monensin]
fat-corrected-milk production (dairy cows): no different from that of non-treated control animals
